Source: the CheMixHub ionic liquid set

Test: xn = mol fraction of the nth substance listed

CCCCCn1cc[n+](CCCCC)c1.O=S(=O)([N-]S(=O)(=O)C(F)(F)F)C(F)(F)F + O
100 kPa, x2 = 0.1575
Conditions	viscosity [mPa·s]
313.15 K	35.17
338.15 K	15.44
358.15 K	9.31

CCC(=O)[O-].CC[NH+]1CCNCC1 + CCCCO
Conditions	viscosity [mPa·s]
313.15 K, 101 kPa, x2 = 0.6004	14.05

CCCCCC[n+]1ccn(C)c1.N#C[S-] + [Cl-].[Li+] + CN1CCCC1=O
298.15 K, 101 kPa
Conditions	viscosity [mPa·s]
x1 = 0.001304, x2 = 0.1036	5.036
x1 = 0.001343, x2 = 0.0415	2.652
x1 = 0.001443, x2 = 0.07122	3.694
x1 = 0.002891, x2 = 0.1035	5.064
x1 = 0.002967, x2 = 0.07111	3.723
x1 = 0.00301, x2 = 0.04143	2.691
x1 = 0.004262, x2 = 0.1033	5.092
x1 = 0.004468, x2 = 0.071	3.75
x1 = 0.004767, x2 = 0.04136	2.745
x1 = 0.00607, x2 = 0.1032	5.12
x1 = 0.006095, x2 = 0.07088	3.806
x1 = 0.00649, x2 = 0.04129	2.765
x1 = 0.007465, x2 = 0.07079	3.848
x1 = 0.007616, x2 = 0.04124	2.776
x1 = 0.007643, x2 = 0.103	5.148
x1 = 0.008578, x2 = 0.07071	3.887
x1 = 0.008753, x2 = 0.1029	5.176
x1 = 0.009233, x2 = 0.04117	2.794
x1 = 0.01021, x2 = 0.1027	5.204
x1 = 0.0105, x2 = 0.04112	2.823
x1 = 0.0108, x2 = 0.07055	3.923
x1 = 0.01107, x2 = 0.1026	5.231
x1 = 0.01163, x2 = 0.04107	2.837
x1 = 0.01204, x2 = 0.07046	3.961

CCCCC(CC)COC(=O)CC(C(=O)OCC(CC)CCCC)S(=O)(=O)[O-].CCCC[n+]1ccn(C)c1 (stereo not drawn) + O
99.6 kPa, x1 = 0.8687
Conditions	viscosity [mPa·s]
293.15 K	3442
303.15 K	1454

CCCCCCCC[n+]1ccccc1.[Br-] + CC(C)C[C@H](NC(=O)CN)C(=O)O + O
100 kPa
Conditions	electrical conductivity [S/m]
288.15 K, x2 = 0.0008948, x1 = 0.005958	1.18
288.15 K, x2 = 0.0008949, x1 = 0.005845	1.16
288.15 K, x2 = 0.0008952, x1 = 0.005555	1.12
288.15 K, x2 = 0.0008955, x1 = 0.005223	1.08
288.15 K, x2 = 0.0008958, x1 = 0.004874	1.04
288.15 K, x2 = 0.0008961, x1 = 0.00451	0.998
288.15 K, x2 = 0.0008965, x1 = 0.00409	0.947
288.15 K, x2 = 0.0008969, x1 = 0.003625	0.867
288.15 K, x2 = 0.0008973, x1 = 0.003174	0.789
288.15 K, x2 = 0.0008978, x1 = 0.002616	0.679
288.15 K, x2 = 0.0008984, x1 = 0.002001	0.558
288.15 K, x2 = 0.0008987, x1 = 0.001608	0.469
288.15 K, x2 = 0.0008991, x1 = 0.001214	0.381
288.15 K, x2 = 0.0008996, x1 = 0.0007137	0.253
288.15 K, x2 = 0.001788, x1 = 0.005808	1.12
288.15 K, x2 = 0.001789, x1 = 0.005199	1.05
288.15 K, x2 = 0.001789, x1 = 0.005515	1.09
288.15 K, x2 = 0.00179, x1 = 0.004871	1.01
288.15 K, x2 = 0.001791, x1 = 0.00409	0.911
288.15 K, x2 = 0.001791, x1 = 0.004503	0.962
288.15 K, x2 = 0.001792, x1 = 0.003639	0.855
288.15 K, x2 = 0.001793, x1 = 0.003149	0.766
288.15 K, x2 = 0.001794, x1 = 0.002603	0.666
288.15 K, x2 = 0.001795, x1 = 0.002003	0.545
288.15 K, x2 = 0.001796, x1 = 0.001632	0.462
288.15 K, x2 = 0.001797, x1 = 0.0008258	0.273
288.15 K, x2 = 0.001797, x1 = 0.001246	0.37
293.15 K, x2 = 0.0008948, x1 = 0.005956	1.31
293.15 K, x2 = 0.0008949, x1 = 0.005843	1.3
293.15 K, x2 = 0.0008952, x1 = 0.005554	1.27
293.15 K, x2 = 0.0008955, x1 = 0.005223	1.22
293.15 K, x2 = 0.0008958, x1 = 0.004874	1.17
293.15 K, x2 = 0.0008961, x1 = 0.004508	1.12
293.15 K, x2 = 0.0008965, x1 = 0.004089	1.06
293.15 K, x2 = 0.0008969, x1 = 0.003623	0.983
293.15 K, x2 = 0.0008973, x1 = 0.003174	0.894
293.15 K, x2 = 0.0008978, x1 = 0.002616	0.781
293.15 K, x2 = 0.0008984, x1 = 0.002001	0.632
293.15 K, x2 = 0.0008987, x1 = 0.001608	0.526
293.15 K, x2 = 0.0008991, x1 = 0.001214	0.427
293.15 K, x2 = 0.0008996, x1 = 0.0007137	0.283
293.15 K, x2 = 0.001788, x1 = 0.005807	1.28
293.15 K, x2 = 0.001789, x1 = 0.005198	1.19
293.15 K, x2 = 0.001789, x1 = 0.005513	1.24
293.15 K, x2 = 0.00179, x1 = 0.004869	1.14
293.15 K, x2 = 0.001791, x1 = 0.00409	1.04
293.15 K, x2 = 0.001791, x1 = 0.004503	1.1
293.15 K, x2 = 0.001792, x1 = 0.003637	0.959
293.15 K, x2 = 0.001793, x1 = 0.003149	0.869
293.15 K, x2 = 0.001794, x1 = 0.002603	0.756
293.15 K, x2 = 0.001795, x1 = 0.002003	0.615
293.15 K, x2 = 0.001796, x1 = 0.001632	0.523
293.15 K, x2 = 0.001797, x1 = 0.0008258	0.306
293.15 K, x2 = 0.001797, x1 = 0.001246	0.419
298.15 K, x2 = 0.0008948, x1 = 0.005954	1.49
298.15 K, x2 = 0.0008949, x1 = 0.005843	1.48
298.15 K, x2 = 0.0008952, x1 = 0.005554	1.44
298.15 K, x2 = 0.0008955, x1 = 0.005221	1.38
298.15 K, x2 = 0.0008958, x1 = 0.004872	1.34
298.15 K, x2 = 0.0008961, x1 = 0.004508	1.29
298.15 K, x2 = 0.0008965, x1 = 0.004089	1.21
298.15 K, x2 = 0.0008969, x1 = 0.003623	1.12
298.15 K, x2 = 0.0008973, x1 = 0.003174	1.02
298.15 K, x2 = 0.0008978, x1 = 0.002616	0.883
298.15 K, x2 = 0.0008984, x1 = 0.002001	0.72
298.15 K, x2 = 0.0008987, x1 = 0.001608	0.604
298.15 K, x2 = 0.0008991, x1 = 0.001214	0.48
298.15 K, x2 = 0.0008996, x1 = 0.0007137	0.314
298.15 K, x2 = 0.001788, x1 = 0.005807	1.46
298.15 K, x2 = 0.001789, x1 = 0.005198	1.36
298.15 K, x2 = 0.001789, x1 = 0.005513	1.41
298.15 K, x2 = 0.00179, x1 = 0.004869	1.31
298.15 K, x2 = 0.001791, x1 = 0.004088	1.17
298.15 K, x2 = 0.001791, x1 = 0.004501	1.25
298.15 K, x2 = 0.001792, x1 = 0.003637	1.09
298.15 K, x2 = 0.001793, x1 = 0.003149	0.978
298.15 K, x2 = 0.001794, x1 = 0.002603	0.849
298.15 K, x2 = 0.001795, x1 = 0.002003	0.689
298.15 K, x2 = 0.001796, x1 = 0.001632	0.585
298.15 K, x2 = 0.001797, x1 = 0.0008258	0.341
298.15 K, x2 = 0.001797, x1 = 0.001246	0.469
303.15 K, x2 = 0.0008948, x1 = 0.005952	1.67
303.15 K, x2 = 0.0008949, x1 = 0.005839	1.65
303.15 K, x2 = 0.0008952, x1 = 0.00555	1.6
303.15 K, x2 = 0.0008955, x1 = 0.005219	1.54
303.15 K, x2 = 0.0008958, x1 = 0.00487	1.49
303.15 K, x2 = 0.0008961, x1 = 0.004507	1.43
303.15 K, x2 = 0.0008965, x1 = 0.004087	1.34
303.15 K, x2 = 0.0008969, x1 = 0.003621	1.24
303.15 K, x2 = 0.0008973, x1 = 0.003172	1.12
303.15 K, x2 = 0.0008978, x1 = 0.002616	0.97
303.15 K, x2 = 0.0008984, x1 = 0.001999	0.789
303.15 K, x2 = 0.0008987, x1 = 0.001608	0.66
303.15 K, x2 = 0.0008991, x1 = 0.001214	0.531
303.15 K, x2 = 0.0008996, x1 = 0.0007137	0.347
303.15 K, x2 = 0.001789, x1 = 0.005196	1.52
303.15 K, x2 = 0.001789, x1 = 0.005509	1.58
303.15 K, x2 = 0.00179, x1 = 0.004867	1.46
303.15 K, x2 = 0.001791, x1 = 0.004088	1.31
303.15 K, x2 = 0.001791, x1 = 0.004501	1.4
303.15 K, x2 = 0.001792, x1 = 0.003637	1.21
303.15 K, x2 = 0.001793, x1 = 0.003148	1.09
303.15 K, x2 = 0.001794, x1 = 0.002601	0.944
303.15 K, x2 = 0.001795, x1 = 0.002003	0.768
303.15 K, x2 = 0.001796, x1 = 0.001632	0.65
303.15 K, x2 = 0.001797, x1 = 0.0008258	0.377
303.15 K, x2 = 0.001797, x1 = 0.001246	0.521
308.15 K, x2 = 0.0008948, x1 = 0.005949	1.85
308.15 K, x2 = 0.0008949, x1 = 0.005837	1.83
308.15 K, x2 = 0.0008952, x1 = 0.005548	1.78
308.15 K, x2 = 0.0008955, x1 = 0.005217	1.71
308.15 K, x2 = 0.0008958, x1 = 0.004868	1.65
308.15 K, x2 = 0.0008961, x1 = 0.004505	1.57
308.15 K, x2 = 0.0008965, x1 = 0.004085	1.49
308.15 K, x2 = 0.0008969, x1 = 0.003621	1.36
308.15 K, x2 = 0.0008973, x1 = 0.003172	1.23
308.15 K, x2 = 0.0008978, x1 = 0.002614	1.06
308.15 K, x2 = 0.0008984, x1 = 0.001999	0.852
308.15 K, x2 = 0.0008987, x1 = 0.001608	0.718
308.15 K, x2 = 0.0008991, x1 = 0.001214	0.577
308.15 K, x2 = 0.0008996, x1 = 0.0007137	0.379
308.15 K, x2 = 0.001789, x1 = 0.005194	1.69
308.15 K, x2 = 0.001789, x1 = 0.005508	1.75
308.15 K, x2 = 0.00179, x1 = 0.004866	1.63
308.15 K, x2 = 0.001791, x1 = 0.004086	1.46
308.15 K, x2 = 0.001791, x1 = 0.004499	1.55
308.15 K, x2 = 0.001792, x1 = 0.003635	1.33
308.15 K, x2 = 0.001793, x1 = 0.003148	1.21
308.15 K, x2 = 0.001794, x1 = 0.002601	1.04
308.15 K, x2 = 0.001795, x1 = 0.002003	0.843
308.15 K, x2 = 0.001796, x1 = 0.00163	0.713
308.15 K, x2 = 0.001797, x1 = 0.0008258	0.415
308.15 K, x2 = 0.001797, x1 = 0.001246	0.576
